Measurements reported in ChEMBL document CHEMBL3046091, “Synthesis and antimicrobial activities of 2-azetidinyl-4-quinazolinone derivatives of diclofenac analogue” (2011).

Assays:
Assay type in all cases: functional
[1] = system: Candida albicans; test: Antifungal activity against Candida albicans ATCC 10231 at 50 ug/ml by cup-plate method; details: read-out: IZ
[2] = system: Pseudomonas aeruginosa; test: Antibacterial activity against Pseudomonas aeruginosa ATCC 9027 at 50 ug/ml by cup-plate method; details: read-out: IZ
[3] = system: Staphylococcus aureus; test: Antibacterial activity against Staphylococcus aureus ATCC 9144 at 50 ug/ml by cup-plate method; details: read-out: IZ
[4] = system: Escherichia coli; test: Antibacterial activity against Escherichia coli ATCC 25922 at 50 to 100 ug/ml by cup-plate method
[5] = system: Pseudomonas aeruginosa; test: Antibacterial activity against Pseudomonas aeruginosa ATCC 9027 at 50 to 100 ug/ml by cup-plate method
[6] = system: Escherichia coli; test: Antibacterial activity against Escherichia coli ATCC 25922 at 50 ug/ml by cup-plate method; details: read-out: IZ
[7] = system: Pseudomonas aeruginosa; test: Antibacterial activity against Pseudomonas aeruginosa ATCC 9027 at 100 ug/ml by cup-plate method; details: read-out: IZ
[8] = system: Candida albicans; test: Antifungal activity against Candida albicans ATCC 10231 at 100 ug/ml by cup-plate method; details: read-out: IZ
[9] = system: Escherichia coli; test: Antibacterial activity against Escherichia coli ATCC 25922 at 100 ug/ml by cup-plate method; details: read-out: IZ
[10] = system: Bacillus subtilis; test: Antibacterial activity against Bacillus subtilis ATCC 6633 at 50 to 100 ug/ml by cup-plate method
[11] = system: Bacillus subtilis; test: Antibacterial activity against Bacillus subtilis ATCC 6633 at 100 ug/ml by cup-plate method; details: read-out: IZ
[12] = system: Staphylococcus aureus; test: Antibacterial activity against Staphylococcus aureus ATCC 9144 at 100 ug/ml by cup-plate method; details: read-out: IZ
[13] = system: Bacillus subtilis; test: Antibacterial activity against Bacillus subtilis ATCC 6633 at 50 ug/ml by cup-plate method; details: read-out: IZ
[14] = system: Staphylococcus aureus; test: Antibacterial activity against Staphylococcus aureus ATCC 9144 at 50 to 100 ug/ml by cup-plate method

Row | SMILES | zone of inhibition at 50 µg/mL [1] | zone of inhibition at 50 µg/mL [2] | zone of inhibition at 50 µg/mL [3] | Activity [4] | Activity [5] | zone of inhibition at 50 µg/mL [6] | zone of inhibition at 100 µg/mL [7] | zone of inhibition at 100 µg/mL [8] | zone of inhibition at 100 µg/mL [9] | Activity [10] | zone of inhibition at 100 µg/mL [11] | zone of inhibition at 100 µg/mL [12] | zone of inhibition at 50 µg/mL [13] | Activity [14]
1 | CN(C)c1ccc(/C=N/c2ccc(-n3c(Cc4ccccc4Nc4c(Cl)cccc4Cl)nc4ccc(Br)cc4c3=O)cc2)cc1 | 0 mm | 0 mm | 0 mm | 0% | 0% | 0 mm | 0 mm | 1 mm | 0 mm | 0% | 0 mm | 0 mm | 0 mm | 0%
2 | O=C1C(Cl)C(c2ccc(Cl)cc2)N1c1ccc(-n2c(Cc3ccccc3Nc3c(Cl)cccc3Cl)nc3ccc(Br)cc3c2=O)cc1 (centres undefined) | 2 mm | 5 mm | 5 mm | 51.09% | 61.79% | 3 mm | 8 mm | 5 mm | 7 mm | 57.44% | 8 mm | 8 mm | 5 mm | 66.67%
3 | O=c1c2cc(Br)ccc2nc(Cc2ccccc2Nc2c(Cl)cccc2Cl)n1-c1ccc(/N=C/c2cccc([N+](=O)[O-])c2)cc1 | 1 mm | 1 mm | 1 mm | 28.39% | 33.92% | 1 mm | 3 mm | 2 mm | 3 mm | 24.99% | 3 mm | 3 mm | 2 mm | 29.73%
4 | O=C1C(Cl)C(c2cccc([N+](=O)[O-])c2)N1c1ccc(-n2c(Cc3ccccc3Nc3c(Cl)cccc3Cl)nc3ccc(Br)cc3c2=O)cc1 (centres undefined) | 1 mm | 2 mm | 1 mm | 32.65% | 36.75% | 2 mm | 4 mm | 2 mm | 4 mm | 32.65% | 4 mm | 3 mm | 2 mm | 29.73%
5 | COc1cc(/C=N/c2ccc(-n3c(Cc4ccccc4Nc4c(Cl)cccc4Cl)nc4ccc(Br)cc4c3=O)cc2)cc(OC)c1OC | 1 mm | 2 mm | 3 mm | 50% | 47.09% | 4 mm | 5 mm | 2 mm | 7 mm | 53.33% | 8 mm | 6 mm | 4 mm | 50.98%
6 | O=c1c2cc(Br)ccc2nc(Cc2ccccc2Nc2c(Cl)cccc2Cl)n1-c1ccc(/N=C/c2ccccc2O)cc1 | 0 mm | 2 mm | 3 mm | 36.74% | 38.83% | 3 mm | 4 mm | 1 mm | 5 mm | 36% | 5 mm | 5 mm | 3 mm | 42.87%
